Series [1] is described as follows: in vitro. The format is cell-based. The note with it: human. In short, it runs like this: (§1)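 HepG2 cells at 80−90% confluency exposed 48 h (37 °C, 5% CO2) to two-fold serial dilutions over 10–1280 μg/mL. Viability by MTT (0.2 mg/mL, 3 h), A540 after DMSO solubilisation, as % of untreated control; IC50 from curve fit.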
In series [2] the test system is HepG2 cell line ATCC HB-8065. Put plainly: in vitro. The format is cell-based. Particulars: 48 h. In short, it runs like this: as §1
Series [3] is described as follows: Relative hydrophobicity by RP-HPLC (% MeCN at peak elution). The format is physicochemical. The note with it: RP-HPLC gradient 0 → 60% B during 10 min; % MeCN at peak elution calculated from retention time.
Series [4] is described as follows: in vitro. The class given is cell-based. Particulars: human, Hemolytic Activity (percentage hemolysis). In short, it runs like this: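 Washed fresh human erythrocytes, as a 0.5% v/v suspension, were mixed with an equal volume of twofold peptidomimetic dilutions in PBS and incubated 60 min at 37 °C. Hemoglobin released into the supernatant was read at OD 405 nm, with 0.1% SDS as 100% and PBS as 0% hemolysis. Test concentrations were 200, 400 and 800 μg/mL.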

Series [5] has as its system E. faecalis ATCC 29212. The format is cell-based. The note with it: ATCC 29212, 20 h. In short, it runs like this:
(§2)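 MIC by broth microdilution (modified Hancock protocol) in Mueller-Hinton broth with 4 mg/L each of Mg2+ and Ca2+, ~2 × 10^5 CFU/mL, in non-binding plates. Compounds were diluted in 0.01% acetic acid/0.2% BSA. Plates were read after 20 h at 35 °C with 220 rpm shaking.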

In series [6] the test system is A. baumannii ATCC 19606. The format is cell-based. The note with it: ATCC 19606, 20 h. In short, it runs like this:
as §2

For series [7], the system named is P. aeruginosa ATCC 27853. The format is cell-based. Particulars: ATCC 27853, 20 h. In a few lines: as §2
Series [8] deals with K. pneumoniae ATCC 13883. The format is cell-based. Particulars: ATCC 13883, 20 h. In a few lines:
as §2

In series [9] the test system is S. aureus ATCC 29213. The format is cell-based. The note with it: ATCC 29213, 20 h. In a few lines:
as §2

Series [10] concerns E. coli ATCC 25922. The class given is cell-based. The note with it: ATCC 25922, 20 h. In short, it runs like this: as §2
The subject of series [11] is P. aeruginosa PAO1. The class given is cell-based. Particulars: PAO1, 20 h. In a few lines: as §2
Series [12] has as its system human red blood cells. Particulars: cited from earlier work.
Details of series [13]: method as in PMID 29198866. The note with it: peptoid oligomers; cited from earlier work.

Values after ≈ are worked out from the molar mass of the structure shown. Non-standard residues stand in square brackets, D forms with d. Residues, ends and D or L forms follow the SMILES beside them. Nphe = O=C(O)CNCc1ccccc1 Bounds are passed on as bounds.

`NCCCC[C@H](NC(=O)CN(Cc1ccccc1)C(=O)[C@H](CCCCN)NC(=O)CN(Cc1ccccc1)C(=O)[C@H](CCCCN)NC(=O)CN(Cc1ccccc1)C(=O)[C@H](CCCCN)NC(=O)CN(Cc1ccccc1)C(=O)[C@H](CCCCN)NC(=O)CN(Cc1ccccc1)C(=O)[C@@H](N)CCCCN)C(=O)N(CC(N)=O)Cc1ccccc1` [Peptidomimetic 11] (H-K[Nphe]K[Nphe]K[Nphe]K[Nphe]K[Nphe]K[Nphe]-NH2): the viability (commonly the share of living cells, or the viability signal relative to a control) at 48 h, 1280 µg/mL in series [1] was 76%. Further, the “IC50 for inhibiting growth of HepG2 cells” value in series [2] is >1280 µg/mL. Moreover, in series [3], the “Hydrophobicity (% MeCN at elution)” value is 36.9%. Moreover, the hemolysis at 60 min, 800 µg/mL in series [4] turned out to be 10%. Moreover, the minimal inhibitory concentration (MIC) (in general, the lowest concentration found to suppress growth) in series [5] is >64 µg/mL; in series [6], >64 µg/mL; in series [7], 4 µg/mL (≈ 2.4 µM); in [8], 64 µg/mL (≈ 38.3 µM); in [9], >64 µg/mL; in series [10], 4 to 8 µg/mL. In [11], this molecule gave a minimum inhibitory concentration (MIC) of 8 to 16 µg/mL.

H-(NLys-Nspe-Nspe)4-NH2: the “Concentration resulting in 10% hemolysis” value in [12] is 9.1 µM. The “Hydrophobicity (% MeCN at peak elution)” value in series [13] is on record as 53.6 % MeCN.

Source of the values: PMC6943742, “Peptide/Peptoid Hybrid Oligomers: The Influence of Hydrophobicity and Relative Side-Chain Length on Antibacterial Activity and Cell Selectivity” (Molecules, 2019).
